Results as given in patent publication US8338450B2, “Compounds as dipeptidyl peptidase IV (DPP IV) inhibitors” (Lupin Limited, priority 2007, dated 2012).
Structures can show the parent of a compound that is named as a salt. Where two headings read alike, the source gives them in different places.

Tests used:
human recombinant DPP-IV = target: T1, human recombinant DPP-IV (Homo sapiens, UniProt P27487); test: Inhibition of human recombinant DPP-IV (Gly-Pro-AMC hydrolysis, fluorometric); format: biochemical; details: human recombinant DPP-IV, 50 μM Gly-Pro-AMC, 30 min at 30° C.
T1 construct: purchased R&D Systems, USA (or produced in-house)
How it was run: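 Enzyme (10 ng) was preincubated 15 min at 30° C. with compound (10 and 100 nM screen; 8 concentrations 0.1-1000 nM) in Tris-HCl pH 7.4, NaCl, KCl, BSA. 50 μM Gly-Pro-AMC was added for 30 min at 30° C. and AMC fluorescence was read (ex 360/em 460 nm). Results are given as % inhibition versus vehicle or as IC50.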

plasma DPP-IV = target: T2, plasma DPP-IV (Rattus norvegicus, UniProt P14740); test: Measurement of plasma DPP-IV activity in male Wistar rats after single oral dose; format: in vivo; details: p.o.; for inhibition at 3 mg/kg / inhibition at 10 mg/kg: rat, po; for inhibition at 3 mg/kg / Plasma DPP-IV Inhibition (%) 4 h / Plasma DPP-IV Inhibition (%) 6 h / Plasma DPP-IV Inhibition (%) 8 h: 3 mg/kg
T2 construct: from tissue; host or cells: EDTA-plasma of male Wistar rats dosed orally
Experimental: Overnight-fasted male animals were administered either vehicle or single oral doses of compounds. Blood samples were withdrawn from retro-bulbar venous plexus under anesthesia at several time points up to 24 h post-dose. EDTA-plasma was separated and DPP-IV activity was measured using a fluorometric assay. Assays were carried out in 96-well flat-bottom black microwell plates. A typical reaction contained 25 μl plasma, 50 μl of 50 μM substrate (Gly-Pro-AMC) and 25 μl assay buffer (25 mM Tris-HCl, pH 7.4, 140 mM NaCl, 10 mM KCl and 1% BSA) in a total reaction volume of 100 μl. Plasma samples were incubated with the substrate for 30 min at 30° C., following which the fluorescence was measured in a microplate fluorescence redaer (POLARstar Galaxy), with excitation and emission wavelengths set at 360 nm and 460 nm, respectively. Percent inhibition in plasma DPP-IV activity due to compounds was calculated by comparing with plasma from vehicle-treated animals.

C57BL/6J mice = test: Oral glucose tolerance test in male C57BL/6J mice; format: in vivo; details: 3 mg/kg, p.o., oral glucose load 5 g/kg 1 h after compound, glucose AUC 0-120 min vs vehicle
Experimental: B. Oral Glucose Tolerance Test in Male C57BU6J Mice
Overnight-fasted male […] mice were challenged 1 h, 4 h and 8 h after either vehicle or compound administration with an oral glucose load of 5 g/kg in three different groups of animals. Blood samples for glucose measurement were obtained by tail bleed at predose, before glucose load and at serial time points after the glucose load, to evaluate the efficacy and duration of effect on glucose tolerance test. […] Improvement in glucose tolerance in compound-treated animals was estimated by comparing with vehicle-treated animals.
Table 3 provides data for the antihyperglycemic activity of selected compounds in C57BL/6J mice, as determined by oral glucose tolerance test.

[1] = 4 h post-dose, read-out: Plasma DPP-IV Inhibition (%) 4 h
[2] = 6 h post-dose, read-out: Plasma DPP-IV Inhibition (%) 6 h
[3] = 8 h post-dose, read-out: Plasma DPP-IV Inhibition (%) 8 h

T1 sequence (P27487 whole entry): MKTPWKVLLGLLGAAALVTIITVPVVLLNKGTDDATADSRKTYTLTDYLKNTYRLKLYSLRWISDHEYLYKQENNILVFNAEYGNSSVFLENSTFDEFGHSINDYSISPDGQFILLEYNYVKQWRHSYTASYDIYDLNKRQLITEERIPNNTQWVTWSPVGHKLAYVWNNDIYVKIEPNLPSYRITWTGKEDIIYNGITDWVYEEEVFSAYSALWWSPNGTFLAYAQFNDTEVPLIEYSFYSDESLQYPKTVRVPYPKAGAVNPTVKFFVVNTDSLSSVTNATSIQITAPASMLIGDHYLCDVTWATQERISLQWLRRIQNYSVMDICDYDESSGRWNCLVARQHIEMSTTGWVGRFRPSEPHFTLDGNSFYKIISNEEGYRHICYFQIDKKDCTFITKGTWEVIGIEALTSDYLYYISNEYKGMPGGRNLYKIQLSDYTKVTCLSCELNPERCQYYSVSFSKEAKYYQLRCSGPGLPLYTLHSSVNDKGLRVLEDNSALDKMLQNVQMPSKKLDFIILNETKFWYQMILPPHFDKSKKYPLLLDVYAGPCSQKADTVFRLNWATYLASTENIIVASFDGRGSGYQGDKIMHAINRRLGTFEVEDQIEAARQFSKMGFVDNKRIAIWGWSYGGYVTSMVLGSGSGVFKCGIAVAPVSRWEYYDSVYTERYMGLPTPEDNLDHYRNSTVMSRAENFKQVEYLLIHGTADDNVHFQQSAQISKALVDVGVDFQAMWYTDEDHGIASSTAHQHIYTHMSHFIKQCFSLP
T2 sequence (P14740 37-767 limits assumed): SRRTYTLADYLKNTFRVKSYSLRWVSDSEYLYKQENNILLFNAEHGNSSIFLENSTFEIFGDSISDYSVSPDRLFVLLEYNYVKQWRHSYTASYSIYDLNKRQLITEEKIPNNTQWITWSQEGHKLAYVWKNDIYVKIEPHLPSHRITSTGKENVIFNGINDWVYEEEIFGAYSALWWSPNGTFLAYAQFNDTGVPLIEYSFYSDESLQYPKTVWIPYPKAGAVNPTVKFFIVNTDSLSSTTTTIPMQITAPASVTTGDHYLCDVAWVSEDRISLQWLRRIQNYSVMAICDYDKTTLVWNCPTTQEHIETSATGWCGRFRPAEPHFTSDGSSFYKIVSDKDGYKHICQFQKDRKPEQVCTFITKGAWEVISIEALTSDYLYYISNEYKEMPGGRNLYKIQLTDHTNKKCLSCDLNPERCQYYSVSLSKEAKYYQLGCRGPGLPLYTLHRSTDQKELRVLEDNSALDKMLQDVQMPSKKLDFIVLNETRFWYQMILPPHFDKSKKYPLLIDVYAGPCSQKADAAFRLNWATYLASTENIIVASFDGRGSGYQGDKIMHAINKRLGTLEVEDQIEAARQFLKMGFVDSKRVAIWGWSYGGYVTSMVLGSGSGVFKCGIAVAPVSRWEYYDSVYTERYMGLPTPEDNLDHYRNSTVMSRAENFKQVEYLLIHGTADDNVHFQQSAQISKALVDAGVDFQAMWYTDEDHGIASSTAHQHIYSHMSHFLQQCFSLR

Structure (SMILES) | IC50 (human recombinant DPP-IV) | inhibition at 3 mg/kg (plasma DPP-IV; [1]) | inhibition at 3 mg/kg (plasma DPP-IV; [2]) | inhibition at 3 mg/kg (plasma DPP-IV; [3]) | inhibition at 10 mg/kg (plasma DPP-IV; [1]) | inhibition at 10 mg/kg (plasma DPP-IV; [2]) | inhibition at 10 mg/kg (plasma DPP-IV; [3]) | Improvement in Glucose Tolerance (%) 1 h (C57BL/6J mice) | Plasma DPP-IV Inhibition (%) 4 h (plasma DPP-IV; 4 h post-dose) | Plasma DPP-IV Inhibition (%) 6 h (plasma DPP-IV; 6 h post-dose) | Plasma DPP-IV Inhibition (%) 8 h (plasma DPP-IV; 8 h post-dose)
N#C[C@@H]1C[C@@H]2C[C@@H]2N1C(=O)[C@@H](N)C1CC2CCC(C1)N2C(=O)c1ccnc(F)c1 (stereo partly drawn) [Compound 28, (1S,3S,5S)-2-{(2S)-2-amino-2-[8-(2-fluoropyridine-4-carbonyl)-8-aza-bicyclo[3.2.1]-oct-3-yl]-exo-ethanoyl}-2-azabicyclo[3.1.0]-hexane-3-carbonitrile trifluoro acetic acid salt] | 4.7 nM | 51% | 35% | 28% | 77% | 65% | 53% | 54% |  |  | 
N#C[C@@H]1C[C@@H]2C[C@@H]2N1C(=O)[C@@H](N)C1CC2CCC(C1)N2C(=O)c1cnccn1.O=C(O)C(F)(F)F (stereo partly drawn) [Compound 35, (1S,3S,5S)-2-{(2S)-2-Amino-2-[8-(pyrazine-2-carbonyl)-8-aza-bicyclo[3.2.1]oct-3-yl]-exo-ethanoyl}-2-azabicyclo[3.1.0]hexane-3-carbonitrile trifluoroacetic acid salt] | 4.2 nM |  |  |  |  |  |  | 46% | 54% | 42% | 33%
C#C[C@H]1CC[C@@H](C#N)N1C(=O)[C@@H](N)C1CC2CCC(C1)N2C(=O)c1ccnc(F)c1 (stereo partly drawn) [Compound 66, (2S,5R)-1-{(2S)-2-Amino-2-[8-(2-fluoropyridin-4-carbonyl)-8-aza-bicyclo[3.2.1]-oct-3-yl]-exo-ethanoyl}-5-ethynyl-pyrrolidin-2-carbonitrile trifluoro acetic acid salt] | 8.24 nM | 56% | 38% | 38% |  |  |  | 48% |  |  | 
C#C[C@H]1CC[C@@H](C#N)N1C(=O)[C@@H](N)C1CC2CCC(C1)N2C(=O)c1ccc2c(c1)OCO2.O=C(O)C(F)(F)F (stereo partly drawn) [Compound 67, (2S,5R)-1-{(2S)-2-Amino-2-[8-(benzo[1,3]dioxole-5-carbonyl)-8-aza-bicyclo[3.2.1]oct-3-yl]-exo-ethanoyl}-5-ethynyl-pyrrolidin-2-carbonitrile trifluoroacetic acid salt] | 7.68 nM |  |  |  |  |  |  | 50% | 64% | 36% | 23%
